Experimental data: patent US7674795B2, “Fluorene derivatives, composition containing said derivatives and the use thereof” (Aventis Pharma SA, priority 2005, dated 2010)
Where a name gives a salt, the structure may show the parent alone.

These molecules were tested against Hsp82 (Saccharomyces cerevisiae, UniProt P02829) (assay: PK/LDH enzyme coupling test of the ATPase activity of Hsp82 (NADH decrease at 340 nm)). Conditions: 1 μM Hsp82, 250 μM ATP, 37° C., pyruvate kinase/lactate dehydrogenase coupling, read-out: Hsp82 ATPase IC50.
Hsp82, sequence (P02829 whole entry): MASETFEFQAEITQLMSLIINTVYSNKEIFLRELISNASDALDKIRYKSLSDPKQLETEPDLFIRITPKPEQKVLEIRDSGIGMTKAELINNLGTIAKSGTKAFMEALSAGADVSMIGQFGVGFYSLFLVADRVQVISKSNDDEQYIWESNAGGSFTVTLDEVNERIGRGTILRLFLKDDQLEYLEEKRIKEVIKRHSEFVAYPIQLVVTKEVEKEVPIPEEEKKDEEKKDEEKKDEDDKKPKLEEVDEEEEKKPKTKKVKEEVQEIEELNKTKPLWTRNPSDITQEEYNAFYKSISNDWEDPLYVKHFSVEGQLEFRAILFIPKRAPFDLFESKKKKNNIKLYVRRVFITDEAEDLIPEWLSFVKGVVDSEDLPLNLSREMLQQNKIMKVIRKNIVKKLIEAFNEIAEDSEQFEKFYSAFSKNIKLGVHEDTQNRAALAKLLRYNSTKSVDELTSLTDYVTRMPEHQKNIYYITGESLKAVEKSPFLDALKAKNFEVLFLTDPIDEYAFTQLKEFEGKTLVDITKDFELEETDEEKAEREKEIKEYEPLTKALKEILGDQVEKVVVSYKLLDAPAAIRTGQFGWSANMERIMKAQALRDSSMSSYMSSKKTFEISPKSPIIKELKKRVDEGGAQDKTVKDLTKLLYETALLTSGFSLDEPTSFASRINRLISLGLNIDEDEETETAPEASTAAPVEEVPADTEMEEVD
Assay type: biochemical
Excerpt: The formation of ADP due to the ATPase activity of Hsp82 was utilized for developing another method of evaluating the enzymatic activity of this enzyme by application of an enzyme coupling system employing pyruvate kinase (PK) and lactate dehydrogenase (LDH). In this spectrophotometric method of the kinetic type, the PK catalyses the formation of ATP and of pyruvate starting from phosphoenol-pyruvate (PEP) and the ADP produced by HSP82. The pyruvate that formed, an LDH substrate, is then converted to lactate in the presence of NADH. In this case, the decrease in the concentration of NADH, measured by the decrease in absorbance at wavelength of 340 nm, is proportional to the concentration of ADP produced by HSP82. […] This mixture is preincubated at 37° C. for 30 min before adding 3.77 units of LDH and 3.77 units of PK. The reaction is started by adding the product to be evaluated, in variable concentrations, and of Hsp82, at a concentration of 1 μM. The enzymatic activity of Hsp82 is then measured continuously in a microplate reader at 37° C., at wavelength of 340 nm. The initial reaction rate is found by measuring the slope of the tangent at the origin of the recorded curve. The enzymatic activity is expressed as μM of ADP formed per minute. The effect of the various products tested is expressed as percentage of inhibition of ATPase activity, using the following codes: • A: […]

SMILES	IC50 [µM]
O=C(NC1c2ccccc2-c2c(-c3nc4ccncc4[nH]3)cccc21)c1ccncc1O (racemic) [Example 103, 3-hydroxy-N-[4-(3H-imidazo[4,5-c]pyridin-2-yl)-9H-fluoren-9(R,S)-yl]-isonicotinamide]	< 1
O=C(NC1c2ccccc2-c2c(-c3nc4ccncc4[nH]3)cccc21)c1ccnc(C(=O)O)c1 (racemic) [Example 109, 4-[4-(3H-imidazo[4,5-c]pyridin-2-yl)-9H-fluoren-9(R,S)-ylcarbamoyl]-pyridine-2-carboxylic acid]	10 to 100
O=C(NC1c2ccccc2-c2c(-c3nc4ccncc4[nH]3)cccc21)c1ccnc(F)c1 (racemic) [Example 95, 2-fluoro-N-[4-(3H-imidazo[4,5-c]pyridin-2-yl)-9H-fluoren-9(R,S)-yl]-isonicotinamide]	1 to 10
Nc1cnccc1C(=O)NC1c2ccccc2-c2c(-c3nc4ccncc4[nH]3)cccc21 (racemic) [Example 104, 3-amino-N-[4-(3H-imidazo[4,5-c]pyridin-2-yl)-9H-fluoren-9(R,S)-yl]-isonicotinamide]	< 1
CC(C)(C)OC(=O)Nc1cc(C(=O)NC2c3ccccc3-c3c(-c4nc5ccncc5[nH]4)cccc32)ccn1 (racemic) [Example 125, N-[4-(3H-imidazo[4,5-c]pyridin-2-yl)-9H-fluoren-9(R,S)-yl]amide of 2-tert-butoxycarbonylaminoisonicotinic acid]	< 1
NC(=O)CCNC(=O)NC1c2ccccc2-c2c(-c3nc4ccncc4[nH]3)cccc21 (racemic) [Example 79, trifluoroacetate of 3-{3-[4-(3H-imidazo[4,5-c]pyridin-2-yl)-9H-fluoren-9(R,S)-yl]-ureido}-propionamide]	10 to 100
O=C(NC1c2ccccc2-c2c(-c3nc4ccncc4[nH]3)cccc21)c1ccncc1F (racemic) [Example 114, 3-fluoro-N-[4-(3H-imidazo[4,5-c]pyridin-2-yl)-9H-fluoren-9(R,S)-yl]-isonicotinamide]	1 to 10
CC(=O)Nc1cc(C(=O)NC2c3ccccc3-c3c(-c4nc5cnccc5[nH]4)cccc32)ccn1 (racemic) [Example 66, 2-acetylamino-N-[4-(3H-imidazo[4,5-c]pyridin-2-yl)-9H-fluoren-9(R,S)-yl]-isonicotinamide]	< 1
O=C(Cc1ccncc1)NC1c2ccccc2-c2c(-c3nc4ccncc4[nH]3)cccc21 (racemic) [Example 37, N-[4-(3H-imidazo[4,5-c]pyridin-2-yl)-9H-fluoren-9(R,S))-yl]-2-pyridin-4-yl-acetamide trifluoroacetate]	1 to 10
CC(C)(C)OC(=O)N1CCC(C(=O)NC2c3ccccc3-c3c(-c4nc5ccncc5[nH]4)cccc32)CC1 (racemic) [Example 33, tert-butyl ester of 4-[4-(3H-imidazo[4,5-c]pyridin-2-yl)-9H-fluoren-9(R,S)-ylcarbamoyl]-piperidine-1-carboxylic acid]	1 to 10
Nc1nccc(C(=O)NC2c3ccccc3-c3c(-c4nc5ccncc5[nH]4)cccc32)n1 (stereo not drawn) [Example 91, [4-(3H-imidazo[4,5-c]pyridin-2-yl)-9H-fluoren-9-yl]amide of 2-amino-pyrimidine-4-carboxylic acid]	< 1
O=C(NC1c2ccccc2-c2c(-c3nc4ccncc4[nH]3)cccc21)c1cccc2cc(O)ccc12 (racemic) [Example 34, hydrochloride of [4-(3H-imidazo[4,5-c]pyridin-2-yl)-9H-fluoren-9(R,S)-yl]amide of 6-hydroxy-naphthalene-1-carboxylic acid]	1 to 10
COC(=O)c1cc(C(=O)NC2c3ccccc3-c3c(-c4nc5ccncc5[nH]4)cccc32)ccn1 (racemic) [Example 108, methyl ester of 4-[4-(3H-imidazo[4,5-c]pyridin-2-yl)-9H-fluoren-9(R,S)-ylcarbamoyl]-pyridine-2-carboxylic acid]	< 1
O=C(N[C@H]1c2ccccc2-c2c(-c3nc4ccncc4[nH]3)cccc21)c1cccc2ncccc12 (single isomer, unassigned) [Example 14A]	< 1
O=C(NC1c2ccccc2-c2c(-c3nc4ccncc4[nH]3)cccc21)c1ccnc(Cl)c1 (racemic) [Example 87, 2-chloro-N-[4-(3H-imidazo[4,5-c]pyridin-2-yl)-9H-fluoren-9(R,S)-yl]-isonicotinamide]	1 to 10
O=C(NC1c2ccccc2-c2c(-c3nc4ccncc4[nH]3)cccc21)c1cc(C2CC2)nc2ccccc12 (stereo not drawn) [Example 85, [4-(3H-imidazo[4,5-c]pyridin-2-yl)-9H-fluoren-9-yl]amide of 2-cyclopropyl-quinoline-4-carboxylic acid]	1 to 10
CCOC(=O)CCNC(=O)NC1c2ccccc2-c2c(-c3nc4ccncc4[nH]3)cccc21 (racemic) [Example 77, ethyl ester of 3-{3-[4-(3H-imidazo[4,5-c]pyridin-2-yl)-9H-fluoren-9(R,S)-yl]-ureido}-propionic acid]	1 to 10
O=C(NC1c2ccccc2-c2c(-c3nc4cccnc4[nH]3)cccc21)c1ccncc1 (racemic) [Example 110, N-[4-(3H-imidazo[4,5-b]pyridin-2-yl)-9H-fluoren-9(R,S)-yl]-isonicotinamide]	10 to 100

More lines, now with the values ahead:

IC50 [µM]	SMILES
10 to 100	c1ccc2c(c1)Cc1cccc(-c3nc4cnccc4[nH]3)c1-2 [Example 7, 2-(9H-fluoren-4-yl)-3H-imidazo[4,5-c]pyridine]
1 to 10	CC(=O)NC1c2ccccc2-c2c(-c3nc4ccncc4[nH]3)cccc21 (racemic) [Example 72, N-[4-(3H-imidazo[4,5-c]pyridin-2-yl)-9H-fluoren-9(R,S)-yl]-acetamide]
1 to 10	O=C(NC1c2ccccc2-c2c(-c3nc4cnccc4[nH]3)cccc21)c1cccc2[nH]ccc12 (racemic) [Example 53, [4-(3H-imidazo[4,5-c]pyridin-2-yl)-9H-fluoren-9(R,S)-yl]amide of 1H-indole-4-carboxylic acid]
1 to 10	O=C(NC1c2ccccc2-c2c(-c3nc4ccncc4[nH]3)cccc21)c1cc[nH]n1 (racemic) [Example 39, [4-(3H-imidazo[4,5-c]pyridin-2-yl)-9H-fluoren-9(R,S)-yl]amide trifluoroacetate of 1H-pyrazole-3-carboxylic acid]
1 to 10	O=C(Cc1cccnc1)NC1c2ccccc2-c2c(-c3nc4cnccc4[nH]3)cccc21 (racemic) [Example 21, N-[4-(3H-imidazo[4,5-c]pyridin-2-yl)-9H-fluoren-9(R,S)-yl]-2-(pyridin-3-yl)-acetamide]
1 to 10	O=C(NC1c2ccccc2-c2c(-c3nc4ccncc4[nH]3)cccc21)c1cccnc1 (racemic) [Example 48, N-[4-(3H-imidazo[4,5-c]pyridin-2-yl)-9H-fluoren-9(R,S)-yl]-nicotinamide]
1 to 10	O=C(C=C1c2ccccc2-c2c1cccc2-c1nc2cnccc2[nH]1)Nc1cccnc1 (mixture of isomers) [Example 17, 2-[4-(3H-imidazo[4,5-c]pyridin-2-yl)-fluoren-(9E,Z)-ylidene]-N-pyridin-3-yl-acetamide]
1 to 10	O=C(NC1c2ccccc2-c2c(-c3nc4cnccc4[nH]3)cccc21)c1ccc[n+]([O-])c1 (racemic) [Example 56, N-[4-(3H-imidazo[4,5-c]pyridin-2-yl)-9H-fluoren-9(R,S)-yl]-1-oxynicotinamide]
10 to 100	O=C1CNC(=O)N1C1c2ccccc2-c2c(-c3nc4ccncc4[nH]3)cccc21 (racemic) [Example 80, 3-[4-(3H-imidazo[4,5-c]pyridin-2-yl)-9H-fluoren-9(R,S)-yl]-imidazolidine-2,4-dione]
1 to 10	NN=C1c2ccccc2-c2c1cccc2-c1nc2cnccc2[nH]1 (mixture of isomers) [Example 9, N-[4-(1H-imidazo[4,5-c]pyridin-2-yl)-fluoren-9-ylidene]-hydrazine, 60/40 mixture of E and Z isomers]
10 to 100	O=C(NCc1ccc(Cl)nc1)C1c2ccccc2-c2c(-c3nc4cnccc4[nH]3)cccc21 (racemic) [Example 2, (6-chloropyridin-3-ylmethyl)-amide of 4-(1H-imidazo[4,5-c]pyridin-2-yl)-9H-fluorene-9(R,S)-carboxylic acid]
1 to 10	O=C(NC1c2ccccc2-c2c(-c3nc4ccncc4[nH]3)cccc21)c1ccnnc1 (stereo not drawn) [Example 86, [4-(3H-imidazo[4,5-c]pyridin-2-yl)-9H-fluoren-9-yl]amide of pyridazine-4-carboxylic acid]
1 to 10	NC(=O)C[C@H](N)C(=O)NC1c2ccccc2-c2c(-c3nc4cnccc4[nH]3)cccc21 (stereo partly drawn) [Example 63, hydrochloride of (S)-2-amino-N1-[4-(3H-imidazo[4,5-c]pyridin-2-yl)-9H-fluoren-9(R,S)-yl]-succinamide]
1 to 10	O/N=C1\c2ccccc2-c2c1cccc2-c1nc2cnccc2[nH]1 [Example 19, 4-(3H-imidazo[4,5-c]pyridin-2-yl)-fluoren-9-one oxime (Z)]

Same assay, conditions: Hsp82 ATPase IC50 μM, 1 μM Hsp82, 250 μM ATP, 37° C., pyruvate kinase/lactate dehydrogenase coupling

SMILES	IC50 [µM]
NC(=O)NC1c2ccccc2-c2c(-c3nc4ccncc4[nH]3)cccc21 (racemic) [Example 28, [4-(3H-imidazo[4,5-c]pyridin-2-yl)-9H-fluoren-9(R,S)-yl]-urea trifluoroacetate]	10 to 100
